Molecular target: EchA19 (Mycobacterium tuberculosis, UniProt O53561)
Sequence (O53561 whole entry): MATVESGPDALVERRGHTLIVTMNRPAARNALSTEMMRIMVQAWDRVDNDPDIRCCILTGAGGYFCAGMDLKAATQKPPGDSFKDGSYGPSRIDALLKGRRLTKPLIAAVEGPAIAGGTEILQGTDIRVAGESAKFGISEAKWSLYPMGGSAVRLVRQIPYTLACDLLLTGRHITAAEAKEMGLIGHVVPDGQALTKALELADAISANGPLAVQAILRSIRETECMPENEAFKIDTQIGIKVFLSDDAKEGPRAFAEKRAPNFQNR

Which “hydration product identified by MALDI MS and 1H NMR” value does the source give for `C[C@H](/C=C/C(=O)SCCNC(=O)CCNC(=O)[C@H](O)C(C)(C)COP(=O)(O)OP(=O)(O)OC[C@H]1O[C@@H](n2cnc3c(N)ncnc32)[C@H](O)[C@@H]1OP(=O)(O)O)[C@H]1CC[C@H]2[C@@H]3CCC4=CC(=O)CC[C@]4(C)[C@H]3CC[C@]12C` [3-OCDO-CoA] here?
The value was “both EchA19 and ChsH3 performed the hydration reaction on 3-OCDO-CoA”.
